Reference: US11793824B2, “Administration of nicotinamide mononucleotide in the treatment of disease” (Washington University, priority 2013, dated 2023)

Columns and labels:
neurospheres (NSPCs) = assay: Neurosphere proliferation, marker proteins and cell cycle under FK866; type: cell-based, mouse
Procedure: Protein extracts (15-50 μg) from mouse hippocampi or neurospheres were prepared as previously described (Yoshino et al, 2011).
Total RNA was extracted from the hippocampus using an RNeasy kit (Qiagen) and reverse-transcribed into cDNA with a High Capacity cDNA Reverse Transcription kit (Applied Biosystems). Quantitative real-time RT-PCR was conducted with the TaqMan Fast Universal PCR Master mix and appropriate TaqMan primers for each gene with the GeneAmp 7500 fast sequence detection system (Applied Biosystems). Relative expression levels were calculated for each gene by normalizing to Gapdh levels and then to a control.
FK866 (Hasmann & Schemainda, 2003) (Sigma F8557), EX527 (Peck et al, 2010) (Cayman Chemical 10009798), and AGK2 (Outeiro et al, 2007) (Sigma A8231) were dissolved in DMSO and used to inhibit Nampt, Sirt1, and Sirt2 respectively.
Neurosphere cultures and culture media were prepared as described by Dasgupta & Gutmann, 2005 and Lu & Ramanan, 2012 with the following minor modifications. Briefly, postnatal hippocampi were dissected in HibernateA (Invitrogen, A12475-01) and trypsinized at 37° C. for 7 m. Cells were mechanically dissociated by pipetting and pelleted by centrifugation (1700 rpm, 7 min). Dissociation medium (0.1% sodium bicarbonate, 15 mM HEPES, 0.5% glucose in HBSS) was used to wash the cells before they were resuspended in growth medium. Growth medium consisted of DMEM:F12 (1:1, Invitrogen 11966-025 and 21700-075, respectively), B27 (Invitrogen, 17504-044), N2 (Invitrogen, 17502-048), Pen/Strep (Invitrogen), epidermal growth factor (EGF, 20 ng/ml, Sigma, E4127), fibroblast growth factor (FGF, 10 ng/mL, R&D Systems, 233-fb), and heparin (Sigma). Cultures were maintained at 37° C. with 5% CO2, and passaged twice before use in experiments. Three to nine independent samples, each in 1 to 3 replicates, from at least two different litters, were used in all experiments. Neurospheres were cultured in the physiological glucose level of 5 mM (Dienel & Cruz, 2006), which has been previously shown to have no negative consequences on NSPC proliferation, differentiation, or death (Fu et al, 2006; Gao & Gao, 2007).
Neurospheres derived from Nampt^flox/flox mice were dissociated by trypsin digestion and seeded at similar cell densities in 24-well plates with fresh growth medium. Every 24 hours, neurospheres from triplicate wells were collected, dissociated, and counted on a hemocytometer using 0.2% trypan blue exclusion to distinguish viable cells. For analysis of neurosphere diameter, the largest neurosphere in each well was imaged (20× objective) and the diameter was calculated using ImageJ. For secondary neurosphere analysis, the total number of neurospheres in each well was counted at 7 days post-plating.
The inventors investigated how inhibition of Nampt affects neurosphere proliferation. […] To distinguish whether this decrease in cell number was due to an inhibition of proliferation or enhancement of death, the inventors analyzed the protein levels of markers of proliferation, apoptosis, and autophagy. […] Parametric analysis of gene enrichment (PAGE) was conducted based on microarray analyses. See the Methods section. […] Data are presented as mean±s.e.m. *P<0.05. **P<0.01. ***P<0.001.

NAMPT cone-CKO mice = assay: ERG rescue in NAMPT cone-CKO mice; type: in vivo, mouse; settings: NMN i.p.
Excerpt: The inventors examined the effect of selectively disrupting NAD biosynthesis within PR. The inventors utilized the cre-lox strategy to generate mice that had NAMPT conditionally deleted from either rods (NAMPT rod-CKO) or cones (NAMPT cone-CKO). The NAMPT fl/fl mice as well as the rhodopsin-cre and cone opsin-cre mice have been previously characterized. Both rod and cone cko mice are generated with normal Mendelian frequencies and are born normal with no observable systemic abnormalities (data not shown). All structural and functional analyses performed in CKO mice are analyzed in comparison to littermate controls. Rods constitute a majority of the PR neurons (97% of all photoreceptors). […] Neurosensory retinal degeneration was associated with secondary atrophy and pallor of the optic nerve (FIG. 29C).
These quantifiable structural and functional changes were associated with decrease in visual acuity in cone-CKO mice (FIG. 30E). Histopathologic analyses confirmed outer nuclear layer degeneration with subsequent multilayer retinal degeneration and cell death in cone-CKO mice similar to the changes seen above for rod-CKO mice. […] NMN treatment had no effect on littermate controls (FIG. 33A-B). […] Furthermore, providing NMN treatment is able to rescue PR neurons and vision.

[1] = Fundus biomicroscopy of aged mice; type: in vivo, mouse; settings: 18 months of age
Procedure: (§1) A 12 month-long NMN administration study using wild-type mice under a regular chow-fed condition was conducted. NMN was administered through drinking water, and two doses of NMN, 100 and 300 mg/kg body weight/day, were tested. […] To assess beneficial and possible adverse effects of NMN, a variety of physiological parameters were periodically monitored, including body weight, body temperature, food and water intake, fed and fasted blood glucose levels, fed and fasted plasma lipid panels, and glucose and insulin tolerance, in NMN-administered and control mice. Blood chemistry, blood cell counts, urine strip test, and other physiological tests including physical activity test were also checked.
(§2) In the long-term NMN administration study (See Methods; Administration of NMN through Drinking Water and Determination of NMN Stability and Toxicity), retinal function was evaluated by fundus biomicroscopy and electroretinography (ERG). FIG. 11 illustrates fundus biomicroscopy images from control and NMN-administered mice. For each group, five mice were examined, and two representative images are shown.

[2] = Electroretinography (ERG) of aged mice; type: in vivo, mouse
Procedure: as §1, §2
FIG. 12A-C illustrates electroretinograms from control and NMN-administered mice. Amplitudes of scotopic a and b (FIG. 12A, FIG. 12B) and photopic b (FIG. 12C) waves over each stimulus range are shown. […] The data were analyzed with the two-way repeated ANOVA. […]

[3] = FK866 10 nM, 48 hours, immunoblot

| Compound | cyclins E and A and E2F1 mRNA (qRT-PCR) (neurospheres (NSPCs); FK866 10 nM, 48 hours) | levels of activated caspase 3 (neurospheres (NSPCs); FK866 10 nM, 48 hours) | levels of autophagy marker glycosylated LC3B (neurospheres (NSPCs); FK866 10 nM, 48 hours) | reduction of NSPC number (neurospheres (NSPCs); FK866 10 nM, 48 hours) | decrease of Ki67 protein expression (neurospheres (NSPCs); [3]) | decrease of PCNA protein expression (neurospheres (NSPCs); [3]) | proportion of NSPCs in G0/G1 (FACS) (neurospheres (NSPCs); FK866 treatment) | proportion of NSPCs in S phase (FACS) (neurospheres (NSPCs); FK866 treatment) | effect on littermate controls (NAMPT cone-CKO mice) | ERG function (NAMPT cone-CKO mice; vs PBS treated cone-CKO mice) | mice with dramatic reductions in intraretinal whitish deposits ([1]; 100 mg/kg) | mice with dramatic reductions in intraretinal whitish deposits ([1]; 300 mg/kg) | scotopic a wave amplitudes ([2]; at 0 and 5 db (300 mg/kg), 5 db (100 mg/kg), aged mice) | photopic b wave ([2]; entire range of stimulus, 100 and 300 mg/kg groups) |
| --- | --- | --- | --- | --- | --- | --- | --- | --- | --- | --- | --- | --- | --- | --- |
| O=C(/C=C/c1cccnc1)NCCCCC1CCN(C(=O)c2ccccc2)CC1 [FK866] | the primary cell cycle factors affected | only slightly increased | unchanged | 61% | 87% | 43% | increased the proportion of NSPCs in G0/G1 | decreased the proportion in S phase |  |  |  |  |  |  |
| NC(=O)c1ccc[n+]([C@@H]2O[C@H](COP(=O)([O-])O)[C@@H](O)[C@H]2O)c1 [NMN, nicotinamide mononucleotide] |  |  |  |  |  |  |  |  | no effect | improve ERG function | two | four | significantly higher amplitudes | trend of improvement |
